Results on one compound are retold here after patent US20050025809A1, “Poly-4-hydroxybutyrate matrices for sustained drug delivery” (Tepha, Inc., priority 2003, published 2005).

The structures appear in SMILES notation. Like-named read-outs stand apart in the source and are kept apart here.

A short description of series [1]: Drug release from PHA3444 rods in PBS. Particulars: PHA3444-34%:drug 2:1 rods. The series is classed as physicochemical. The source says: The paste was then introduced into a mold measuring 150×5×5 mm, and left to dry at ambient temperature.
Where [2] appears, read: PHA4400 loaded 10:1, PBS pH 7.4, 37° C.

Turning to `CN(C)[C@@H]1C(O)=C(C(N)=O)C(=O)[C@@]2(O)C(O)=C3C(=O)c4c(O)cccc4[C@@](C)(O)[C@H]3C[C@@H]12` [TCN, Tetracycline (neutral)], the “burst of release” value in series [1] is reported as “No burst of release was observed” and the “burst of release” value under setting [2] is “no burst”. The compound also gave an average cumulative release in series [1] (PBS pH 7.4, 37° C., at 17 days) of roughly 23% and an average cumulative release (PHA4400:drug 2:1 rods, PBS pH 7.4, 37° C., at 11 days) of roughly 9%. The “release order” value under setting [2] was “almost perfect zero order release after the first hour”. Moreover, the total release (PHA4400 loaded 10:1, in fifteen days) amounted to 17%.
